Measurements as given in PubChem BioAssay (NCI).
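These data come from cells grown in 96-well plates and exposed to compound for 48 hours at five concentrations. The concentration for 50% growth inhibition is given as GI50. TGI denotes the concentration required for complete inhibition of growth.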

Columns and labels:
Assay in all cases: NCI anticancer screen, dose series, 48 h
K-562 leukemia = tested on: K-562 leukemia
OVCAR-4 ovarian = tested on: OVCAR-4 ovarian
MDA-MB-231 breast = tested on: MDA-MB-231 breast
SW-620 colon = tested on: SW-620 colon
UACC-257 melanoma = tested on: UACC-257 melanoma
UO-31 renal = tested on: UO-31 renal
KM12 colon = tested on: KM12 colon
HOP-62 NSCLC = tested on: HOP-62 NSCLC
HCT-116 colon = tested on: HCT-116 colon
NCI-H226 lung = tested on: NCI-H226 lung

SMILES	GI50 (K-562 leukemia) [µM]	TGI (K-562 leukemia) [µM]	GI50 (OVCAR-4 ovarian) [µM]	TGI (OVCAR-4 ovarian) [µM]	GI50 (MDA-MB-231 breast) [µM]	TGI (MDA-MB-231 breast) [µM]	GI50 (SW-620 colon) [µM]	TGI (SW-620 colon) [µM]	GI50 (UACC-257 melanoma) [µM]	TGI (UACC-257 melanoma) [µM]	GI50 (UO-31 renal) [µM]	TGI (UO-31 renal) [µM]	GI50 (KM12 colon) [µM]	TGI (KM12 colon) [µM]	GI50 (HOP-62 NSCLC) [µM]	TGI (HOP-62 NSCLC) [µM]	TGI (HCT-116 colon) [µM]	TGI (NCI-H226 lung) [µM]	GI50 (HCT-116 colon) [µM]	GI50 (NCI-H226 lung) [µM]
Cc1cc(N2CCOCC2)nc(N(CCNc2ccnc3cc(Cl)ccc23)Cc2cccs2)n1	1.67	3.98	2.37	7.59	1.97	3.64	1.92	4.18	1.88	3.6	1.39	2.75	2.23	5.34	2.44	6.52				
COC(=O)C1CCC2(CC1)NC(=O)NC2=O (stereo not given)		> 100		> 100				> 100		> 100		> 100		> 100		> 100	> 100	> 100		
Cc1nn(C(=O)CC(=O)Nc2ccccc2Cl)c(C)c1N=Nc1ccccc1Cl		> 100		> 100				> 100		> 100		> 100		> 100		> 100	> 100			
O=C(Nc1cccc(Cl)c1)c1cc2cc(N=Nc3ccc(Br)cc3)ccc2oc1=O		> 100		88.7				> 100		> 100		> 100		76		> 100	> 100			
Cn1c(N)cc(=O)nc1N		> 100		> 100		> 100		> 100				> 100		> 100		> 100	> 100	> 100		
COc1ccc(C2CC(c3cccc(Nc4ccnc5cc(Cl)ccc45)c3)=NN2c2ccc(Cl)cc2)cc1 (stereo not given)	2.75	> 100			4.84	65.2	0.533	21.6	6.4	51.4	1.87	31.3	0.713	23.9	2.44	25.6	19.2	94.8	2.27	14.2
O=C1OC2C(O)COC2(OCc2c[nH]c3ccccc23)C1O (stereo not given) (tested in a mixture with another compound)		> 100		> 100				> 100		> 100		> 100		> 100		> 100	> 100	> 100		
COc1ccc2nccc(C3OC(=O)N4CCC(=O)CC34)c2c1 (stereo not given)		> 100		> 100				> 100		> 100		> 100		> 100		> 100	> 100	> 100		
CCCC1C2=C(C(=O)OC2=O)C2C(CC)CC3=C(C(=O)OC3=O)C12 (stereo not given)		> 100				> 100		> 100		> 100		> 100		> 100		> 100	> 100	> 100		
Oc1ccc(-c2nc(-c3ccc4oc5ccc(-c6[nH]c(-c7ccc(O)cc7)nc6-c6ccccc6)cc5c4c3)c(-c3ccccc3)[nH]2)cc1			18	96.9	2.57	7.46	2.95	10.7	10.3	33.6	6.96	22.8	2.88	7.92	7.62	42.3	> 100	> 100	3.85	13.3
Cc1nc2cc(NC(=O)CN3CCN(CCN4C(=O)c5cccc6cccc(c56)C4=O)CC3)ccc2s1			5.33	> 100	11.7	> 100	2.6	24.3	5.83	> 100	3.07	> 100	4.95	18.4	3.83	15.1	14.7	73.9	2.94	4.67
Cc1cn2cc(-c3ccncc3)nc2s1		> 100		> 100				> 100		> 100		> 100		> 100		> 100	> 100	> 100		
COc1ccc(/C=C(\NC(=O)c2ccccc2)c2nc3ccccc3[nH]2)cc1		> 100		> 100				> 100		58.7		74.5		> 100		> 100	> 100	> 100		
CCc1cccc(C(C)C)c1C1C(=O)C(=O)N(c2nc3ccccc3s2)C(=O)C1=O		> 100		> 100				> 100		> 100		> 100		> 100		> 100	> 100	> 100		
O=S(O)CCCSSCCCCSSCCCS(=O)O		> 100		> 100				> 100		> 100		> 100		> 100		> 100	> 100			
O=C1c2ccccc2CC1C1(O)C(=O)Nc2c(Cl)cc(Cl)cc21 (stereo not given)		> 100		> 100				> 100		> 100		> 100		> 100		> 100		> 100		
CCN(CC)CC(C(=O)Nc1c(C)cccc1C)/C(C)=N/NC(N)=S (stereo not given)		> 100						> 100		> 100		> 100		> 100		> 100	> 100	> 100		
COC(=O)[C@@H](C)C[C@H](Cc1ccccc1)NC(=O)c1cccc([C@@H](C[C@H](C(C)C)N(C)C(=O)[C@@H](NC(=O)[C@H]2CCCCN2C)C(C)C)OC(C)=O)n1	< 0.00167	> 16.7	0.00477	> 16.7	0.00236	3.21	< 0.00167	> 16.7	0.0118	> 16.7	0.0127	> 16.7	< 0.00167	> 16.7	0.00367	> 16.7	> 6.68		< 0.00167	
